Measured values: patent US20100256153A1, “METHODS FOR PREVENTING OR REDUCING RISK OF MORTALITY” (priority 2009, published 2010)

Legend:
[1] = system: subjects of pooled studies; assay: Ischemic serious adverse events (heart or brain related) in pooled studies, Fischer Exact Test analysis (FIG. 12); format: in vivo, human; conditions: FIG. 12, per 100 comparator
subjects = assay: Phase 1-3 clinical development, tolerability; format: in vivo, human
non-diabetic rats = assay: Two year survival of non-diabetic rats (FIGS. 7-8); format: in vivo, rat; conditions: 25 mg/kg/day, two years
Excerpt: (§1) In these studies, approximately sixty animals of each gender were exposed to saxagliptin or two cohorts of placebo over two years, the approximate lifetime of a rodent. […] The differences in survival time between male and female rodents are not currently explained. A possible explanation for the rat results is that the dose taken by male rats, 45 times the human equivalent dose, was closer to the human experience than the same dose taken by female rats, 112 times the human equivalent dose, and therefore the male experience may be more relevant.

non-diabetic mice = assay: Two year survival of non-diabetic mice (FIGS. 9-10); format: in vivo, mouse; conditions: 50 mg/kg/day, two years
Excerpt: as §1

[2] = system: Phase 2b/3 pooled population; assay: Pooled analysis of cardiovascular events and death in the Phase 2b/3 clinical studies; format: in vivo, human; conditions: for CEC-CV death/MI/stroke: CEC-adjudicated; for All MI / All stroke: fatal and/or non-fatal
Experimental: The mortality and adverse CV event data shown in the Tables and Figures herein were analyzed from the Phase 2b and Phase 3 studies (Phase 2b/3).
Mortality incidences caused by stroke, heart attack, heart failure, or blood vessel problems not associated with the heart or brain, were defined as CV death. Death by any means, including CV death, was defined as All-cause Mortality or All-cause death.
Acute CV events, as defined herein, includes all cardiovascular disorders associated with Phase 2b/3 subjects that were diagnosed by a medical physician during the studies as acute and clinically significant including MACE events and also procedures (for example, cardiac bypass surgery) and severe ischemic event such as unstable angina. Primary MACE means non-fatal myocardial infarction (MI), non-fatal stroke, and CV death. Secondary MACE accounts for All-cause deaths (death by any means) in addition to non-fatal MI, non-fatal stroke, and CV death.
First, two physicians at the Clinical Event Center (CEC) of the Duke Clinical Research Institute (Durham, N.C.) served as consultants to the sponsor and performed a retrospective treatment-blinded independent adjudication of all identified potential CV events. […] Adjudication was based on definitions typical for such review and prespecified by the reviewers.

[3] = system: subjects administered sitagliptin or metformin; assay: Health insurance data analysis of heart attack, sitagliptin relative to metformin (FIG. 13); format: in vivo, human; conditions: propensity adjusted, 27,424 sitagliptin vs 80,462 metformin subjects
[4] = All Saxa (2.5, 5, 10, 20, 40, 100 mg/d), N = 3356
[5] = CEC adjudication, all saxagliptin

N#C[C@@H]1CCCN1C(=O)CNC12CC3CC(CC(O)(C3)C1)C2 [vildagliptin, reference compound]
ischemic SAEs (heart attack or stroke-like events causing death, hospitalization, or near hospitalization), subjects on drug when 100 subjects on comparator had events [1]: 70 subjects

N#C[C@@H]1C[C@@H]2C[C@@H]2N1C(=O)[C@@H](N)C12CC3CC(CC(O)(C3)C1)C2 [saxagliptin, (1S,3S,5S)-2-[(2S)-2-amino-2-(3-hydroxyadamantan-1-yl)acetyl]-2-azabicyclo[3.1.0]hexane-3-carbonitrile]
ischemic SAEs (heart attack or stroke-like events causing death, hospitalization, or near hospitalization), subjects on drug when 100 subjects on comparator had events [1]: 57 subjects | adverse CV effects related to blood pressure or heart rate (subjects; Phase 1-3 studies overall): did not lead to adverse CV effects | tolerability (subjects; maximum oral daily doses 400 mg up to 2 weeks, 100 mg up to 6 weeks, 40 and 20 mg up to 12 weeks, 2.5, 5, 10 mg up to 2 years): well tolerated | survival versus placebo (non-diabetic rats; female rats, FIG. 8): intermediate between the two placebo cohorts | survival versus placebo (non-diabetic rats; male rats, FIG. 7): reduced risk of mortality or longer survival times | survival versus placebo (non-diabetic mice; female mice, FIG. 9): reduced risk of mortality | survival versus placebo (non-diabetic mice; male mice, FIG. 10): intermediate between the two placebo cohorts | subjects having a Primary MACE (CV death/MI/stroke) ([2]; ALL SAXA group): 0.7% | Inv-CV death/MI/stroke [2, 4]: 23 (0.7) n (%) | CEC-CV death/MI/stroke [2, 4]: 22 (0.7) n (%) | All death ([2]; All Saxa, N = 3356): 10 (0.3) n (%) | Other CV death ([2]; All Saxa, N = 3356): 4 (0.1) n (%) | All MI ([2]; All Saxa, N = 3356): 8 (0.2) n (%) | All stroke ([2]; All Saxa, N = 3356): 11 (0.3) n (%) | All Stroke (fatal and non-fatal), proportion of subjects with events [2, 5]: 0.3% | Other CV death, proportion of subjects with events [2, 5]: 0.1% | all MI, proportion of subjects with events [2, 5]: 0.2% | Acute CV Events, Incidence rate ± SE ([2]; Phase 2/3 Pooled Population): 10.7 ± 1.8 events/1000 patient-years | Primary MACE, Incidence rate ± SE ([2]; Phase 2/3 Pooled Population): 6.2 ± 1.3 events/1000 patient-years | Secondary MACE, Incidence rate ± SE ([2]; Phase 2/3 Pooled Population): 7.0 ± 1.4 events/1000 patient-years | All death ([2]; Saxa 2.5 mg, N = 937): 3 (0.3) n (%) | Inv-CV death/MI/stroke ([2]; Saxa 2.5 mg, N = 937): 6 (0.6) n (%) | Other CV death ([2]; Saxa 2.5 mg, N = 937): 0 n (%) | CEC-CV death/MI/stroke ([2]; Saxa 2.5 mg, N = 937): 6 (0.6) n (%) | All MI ([2]; Saxa 2.5 mg, N = 937): 2 (0.2) n (%) | All stroke ([2]; Saxa 2.5 mg, N = 937): 4 (0.4) n (%) | All death ([2]; Saxa 5 mg, N = 1269): 3 (0.2) n (%) | Inv-CV death/MI/stroke ([2]; Saxa 5 mg, N = 1269): 6 (0.5) n (%) | Other CV death ([2]; Saxa 5 mg, N = 1269): 0 n (%) | CEC-CV death/MI/stroke ([2]; Saxa 5 mg, N = 1269): 7 (0.6) n (%) | All MI ([2]; Saxa 5 mg, N = 1269): 4 (0.3) n (%) | All stroke ([2]; Saxa 5 mg, N = 1269): 4 (0.3) n (%) | All death ([2]; Saxa 10 mg, N = 1000): 4 (0.4) n (%) | Inv-CV death/MI/stroke ([2]; Saxa 10 mg, N = 1000): 11 (1.1) n (%) | Other CV death ([2]; Saxa 10 mg, N = 1000): 4 (0.4) n (%) | CEC-CV death/MI/stroke ([2]; Saxa 10 mg, N = 1000): 9 (0.9) n (%) | All MI ([2]; Saxa 10 mg, N = 1000): 2 (0.2) n (%) | All stroke ([2]; Saxa 10 mg, N = 1000): 3 (0.3) n (%) | Proportion of subjects with SAE CHF events ([2]; all saxagliptin): 0.2% | overall frequency of CV deaths ([2]; all subjects treated with saxagliptin (7/3356)): 0.2% | all cause mortality (death by any means), frequency ([2]; all subjects treated with saxagliptin (10/3356)): 0.3% | incidence of MACE events in higher risk subgroups versus control ([2]; at least one or two CV risk factors in addition to T2DM, history of hypertension or hypercholesterolemia, males, FIGS. 3, 4): lowered incidence MACE events | MACE events incidence rate ([2]; subjects with a history of CV disease, FIG. 3): 9.2 MACE events per 1000 patient-years | fatal CHF events ([2]; two fatal events in total, both on comparator): none

N[C@@H](CC(=O)N1CCn2c(nnc2C(F)(F)F)C1)Cc1cc(F)c(F)cc1F [sitagliptin]
heart attack, subjects on sitagliptin in the time 100 subjects have a heart attack on metformin [3]: 65 subjects
